Reference: the kinase profiling compilation of Christmann-Franck et al. (2016)
“And” between values parts separate entries of the source, which are not always exact repeats. Equal entries are not always repeated.

Tests used:
Assay in all cases: Caliper, Mobility shift assay off-chip
[1] = target: NEK1 (human) (UniProt Q96PY6)
[2] = target: IRAK4 (human) (UniProt Q9NWZ3)
[3] = target: RPS6KB1 (human) (UniProt P23443)
[4] = target: AURKA (human) (UniProt O14965)
[5] = target: ROS1 (human) (UniProt P08922)
[6] = target: NTRK2 (human) (UniProt Q16620)
[7] = target: PIM2 (human) (UniProt Q9P1W9)
[8] = target: PRKACB (human) (UniProt P22694)
[9] = target: NTRK3 (human) (UniProt Q16288)
[10] = target: PRKCB1 (human) (UniProt P05771)
[11] = target: DYRK2 (human) (UniProt Q92630)
Sequence of DYRK2 (human) (Q92630 whole entry, looked up): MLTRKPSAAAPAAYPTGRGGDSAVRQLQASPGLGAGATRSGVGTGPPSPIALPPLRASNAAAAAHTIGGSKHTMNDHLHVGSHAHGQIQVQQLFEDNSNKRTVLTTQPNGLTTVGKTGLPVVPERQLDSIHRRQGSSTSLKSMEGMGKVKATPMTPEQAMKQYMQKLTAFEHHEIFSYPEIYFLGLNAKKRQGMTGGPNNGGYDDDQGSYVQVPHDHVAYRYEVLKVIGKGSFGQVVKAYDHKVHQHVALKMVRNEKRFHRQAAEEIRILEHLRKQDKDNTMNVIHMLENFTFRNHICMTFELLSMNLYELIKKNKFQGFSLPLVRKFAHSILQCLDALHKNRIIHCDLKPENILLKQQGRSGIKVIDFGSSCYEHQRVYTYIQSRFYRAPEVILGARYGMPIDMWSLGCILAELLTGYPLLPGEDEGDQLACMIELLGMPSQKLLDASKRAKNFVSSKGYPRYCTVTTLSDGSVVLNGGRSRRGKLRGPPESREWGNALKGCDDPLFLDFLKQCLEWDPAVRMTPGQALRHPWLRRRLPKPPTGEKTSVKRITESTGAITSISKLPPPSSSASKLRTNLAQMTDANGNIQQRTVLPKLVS

[12] = target: MARK2 (human) (UniProt Q7KZI7)
[13] = target: LATS2 (human) (UniProt Q9NRM7)
[14] = target: NEK9 (human) (UniProt Q8TD19)
Sequence of NEK9 (human) (Q8TD19 whole entry, looked up): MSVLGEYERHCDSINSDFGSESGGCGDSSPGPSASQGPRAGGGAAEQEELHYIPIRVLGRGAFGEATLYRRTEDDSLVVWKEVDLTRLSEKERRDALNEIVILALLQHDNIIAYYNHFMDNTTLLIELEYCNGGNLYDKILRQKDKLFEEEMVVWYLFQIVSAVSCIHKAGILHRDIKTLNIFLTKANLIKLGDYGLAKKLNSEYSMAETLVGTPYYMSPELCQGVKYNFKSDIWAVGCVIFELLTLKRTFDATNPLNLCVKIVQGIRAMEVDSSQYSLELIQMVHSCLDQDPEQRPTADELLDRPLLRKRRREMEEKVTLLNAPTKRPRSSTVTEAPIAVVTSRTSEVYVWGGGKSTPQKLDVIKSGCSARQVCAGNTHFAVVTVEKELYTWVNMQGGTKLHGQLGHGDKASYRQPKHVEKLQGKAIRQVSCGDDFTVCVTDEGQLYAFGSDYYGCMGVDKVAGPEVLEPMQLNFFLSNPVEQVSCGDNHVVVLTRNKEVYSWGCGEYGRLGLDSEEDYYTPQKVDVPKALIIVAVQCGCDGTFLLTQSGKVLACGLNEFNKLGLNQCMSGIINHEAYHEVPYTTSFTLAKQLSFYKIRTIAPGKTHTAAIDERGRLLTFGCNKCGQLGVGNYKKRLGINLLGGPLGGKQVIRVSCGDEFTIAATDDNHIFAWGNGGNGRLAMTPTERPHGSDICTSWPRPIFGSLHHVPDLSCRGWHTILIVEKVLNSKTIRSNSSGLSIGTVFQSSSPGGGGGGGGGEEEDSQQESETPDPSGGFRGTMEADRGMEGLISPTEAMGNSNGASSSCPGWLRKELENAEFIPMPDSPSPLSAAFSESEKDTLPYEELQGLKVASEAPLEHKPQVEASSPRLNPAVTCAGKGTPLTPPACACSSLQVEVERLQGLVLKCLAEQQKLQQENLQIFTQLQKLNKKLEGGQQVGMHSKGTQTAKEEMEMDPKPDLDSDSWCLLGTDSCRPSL

[15] = target: PAK3 (human) (UniProt O75914)
[16] = target: WNK1 (human) (UniProt Q9H4A3)
[17] = target: JAK1 JH1 JH2 (human) (UniProt P23458)
[18] = target: EPHB1 (human) (UniProt P54762)
[19] = target: ROCK2 (human) (UniProt O75116)
Sequence of ROCK2 (human) (O75116 whole entry, looked up): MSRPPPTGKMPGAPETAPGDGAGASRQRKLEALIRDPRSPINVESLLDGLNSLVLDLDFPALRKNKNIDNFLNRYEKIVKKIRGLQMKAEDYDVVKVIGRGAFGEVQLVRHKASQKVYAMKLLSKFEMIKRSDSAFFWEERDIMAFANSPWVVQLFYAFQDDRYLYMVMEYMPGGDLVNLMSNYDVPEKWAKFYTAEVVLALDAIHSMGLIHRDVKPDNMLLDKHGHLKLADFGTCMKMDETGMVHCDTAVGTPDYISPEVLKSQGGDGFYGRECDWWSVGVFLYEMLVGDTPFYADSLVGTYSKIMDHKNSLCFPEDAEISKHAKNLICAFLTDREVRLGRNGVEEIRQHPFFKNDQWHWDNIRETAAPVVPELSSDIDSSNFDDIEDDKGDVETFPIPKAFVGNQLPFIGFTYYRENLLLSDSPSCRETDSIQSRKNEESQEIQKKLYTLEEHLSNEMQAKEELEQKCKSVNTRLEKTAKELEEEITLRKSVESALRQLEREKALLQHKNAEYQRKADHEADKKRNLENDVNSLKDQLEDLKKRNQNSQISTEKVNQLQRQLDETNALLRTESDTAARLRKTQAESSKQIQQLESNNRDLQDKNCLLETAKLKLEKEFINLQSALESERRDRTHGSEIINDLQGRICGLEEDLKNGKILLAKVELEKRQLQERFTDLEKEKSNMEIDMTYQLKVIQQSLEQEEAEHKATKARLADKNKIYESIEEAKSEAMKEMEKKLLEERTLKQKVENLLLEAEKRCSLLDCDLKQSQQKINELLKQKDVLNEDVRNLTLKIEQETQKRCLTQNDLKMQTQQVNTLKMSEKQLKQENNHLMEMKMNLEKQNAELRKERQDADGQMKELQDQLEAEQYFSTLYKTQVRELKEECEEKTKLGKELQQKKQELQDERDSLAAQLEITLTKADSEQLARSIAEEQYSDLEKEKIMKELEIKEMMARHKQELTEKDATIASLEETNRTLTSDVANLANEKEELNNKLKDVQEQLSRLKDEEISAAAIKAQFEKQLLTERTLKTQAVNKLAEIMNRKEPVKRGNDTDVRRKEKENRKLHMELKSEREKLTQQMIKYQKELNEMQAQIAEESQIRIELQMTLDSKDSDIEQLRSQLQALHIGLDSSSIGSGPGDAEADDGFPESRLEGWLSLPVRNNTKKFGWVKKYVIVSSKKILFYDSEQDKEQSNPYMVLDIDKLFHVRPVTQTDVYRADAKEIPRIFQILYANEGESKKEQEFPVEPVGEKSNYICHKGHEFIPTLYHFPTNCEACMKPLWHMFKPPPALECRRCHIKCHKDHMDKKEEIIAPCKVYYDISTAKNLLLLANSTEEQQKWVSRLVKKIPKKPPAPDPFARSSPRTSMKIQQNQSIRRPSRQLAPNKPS

[20] = target: CSF1R (human) (UniProt P07333)
[21] = target: STK24 (human) (UniProt Q9Y6E0)
[22] = target: MET (human) (UniProt P08581); settings: compound 0.001 µM
[23] = target: STK3 (human) (UniProt Q13188)
[24] = target: MAPK13 (human) (UniProt O15264)
Sequence of MAPK13 (human) (O15264 whole entry, looked up): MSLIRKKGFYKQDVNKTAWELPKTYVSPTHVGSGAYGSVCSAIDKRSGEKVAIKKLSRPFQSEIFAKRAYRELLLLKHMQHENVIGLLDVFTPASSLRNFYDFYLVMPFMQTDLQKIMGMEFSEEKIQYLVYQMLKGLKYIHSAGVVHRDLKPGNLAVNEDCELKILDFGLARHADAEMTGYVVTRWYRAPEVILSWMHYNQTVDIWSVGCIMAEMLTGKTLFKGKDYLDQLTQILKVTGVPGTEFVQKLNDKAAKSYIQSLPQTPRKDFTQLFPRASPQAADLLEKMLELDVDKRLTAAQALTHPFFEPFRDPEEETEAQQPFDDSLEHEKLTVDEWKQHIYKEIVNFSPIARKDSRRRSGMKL

[25] = target: CHEK1 (human) (UniProt O14757)
[26] = target: EPHA7 (human) (UniProt Q15375)
[27] = target: EPHA8 (human) (UniProt P29322)
[28] = target: CAMK2A (human) (UniProt Q9UQM7)
[29] = target: ERBB2 (human) (UniProt P04626)
[30] = target: TXK (human) (UniProt P42681)
[31] = target: RPS6KA1 KD1 KD2 (human) (UniProt Q15418)
Sequence of RPS6KA1 KD1 KD2 (human) (Q15418 whole entry, looked up): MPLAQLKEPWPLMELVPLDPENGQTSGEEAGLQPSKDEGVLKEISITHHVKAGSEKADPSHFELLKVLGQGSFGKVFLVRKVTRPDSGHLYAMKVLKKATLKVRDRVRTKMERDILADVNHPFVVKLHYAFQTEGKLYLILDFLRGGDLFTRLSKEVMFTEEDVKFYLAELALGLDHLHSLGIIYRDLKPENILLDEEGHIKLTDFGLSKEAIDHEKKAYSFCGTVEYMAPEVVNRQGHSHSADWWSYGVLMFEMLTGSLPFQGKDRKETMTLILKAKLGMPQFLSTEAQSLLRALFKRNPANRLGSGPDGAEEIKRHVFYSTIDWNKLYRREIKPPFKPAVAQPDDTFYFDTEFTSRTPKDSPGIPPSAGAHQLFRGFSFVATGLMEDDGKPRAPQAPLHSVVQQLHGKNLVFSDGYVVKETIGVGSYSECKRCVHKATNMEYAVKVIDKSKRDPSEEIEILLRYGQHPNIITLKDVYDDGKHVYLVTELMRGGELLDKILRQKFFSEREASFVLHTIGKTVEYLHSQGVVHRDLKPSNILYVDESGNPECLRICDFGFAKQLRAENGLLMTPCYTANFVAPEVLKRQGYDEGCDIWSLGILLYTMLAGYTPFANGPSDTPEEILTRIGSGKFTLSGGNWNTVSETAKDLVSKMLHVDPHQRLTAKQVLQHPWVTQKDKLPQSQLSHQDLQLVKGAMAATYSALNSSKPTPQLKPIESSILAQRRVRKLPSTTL

[32] = target: PDGFRB (human) (UniProt P09619)
[33] = target: CAMK2B (human) (UniProt Q13554)

Sequence of RPS6KB1 (human) (P23443 whole entry, looked up): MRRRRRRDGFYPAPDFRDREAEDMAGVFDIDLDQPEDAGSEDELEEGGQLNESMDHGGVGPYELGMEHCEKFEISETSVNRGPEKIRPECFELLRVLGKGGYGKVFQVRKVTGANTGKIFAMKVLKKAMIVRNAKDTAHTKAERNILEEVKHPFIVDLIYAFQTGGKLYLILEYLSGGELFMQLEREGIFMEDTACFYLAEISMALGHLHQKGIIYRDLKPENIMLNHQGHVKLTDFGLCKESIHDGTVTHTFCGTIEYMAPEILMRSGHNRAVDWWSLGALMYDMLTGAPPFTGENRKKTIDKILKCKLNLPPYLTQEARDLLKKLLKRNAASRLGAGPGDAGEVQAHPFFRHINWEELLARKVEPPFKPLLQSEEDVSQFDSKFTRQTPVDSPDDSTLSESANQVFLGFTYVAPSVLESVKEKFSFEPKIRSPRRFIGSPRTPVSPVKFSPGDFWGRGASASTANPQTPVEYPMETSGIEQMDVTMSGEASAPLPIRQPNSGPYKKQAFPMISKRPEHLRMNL
Sequence of AURKA (human) (O14965 whole entry, looked up): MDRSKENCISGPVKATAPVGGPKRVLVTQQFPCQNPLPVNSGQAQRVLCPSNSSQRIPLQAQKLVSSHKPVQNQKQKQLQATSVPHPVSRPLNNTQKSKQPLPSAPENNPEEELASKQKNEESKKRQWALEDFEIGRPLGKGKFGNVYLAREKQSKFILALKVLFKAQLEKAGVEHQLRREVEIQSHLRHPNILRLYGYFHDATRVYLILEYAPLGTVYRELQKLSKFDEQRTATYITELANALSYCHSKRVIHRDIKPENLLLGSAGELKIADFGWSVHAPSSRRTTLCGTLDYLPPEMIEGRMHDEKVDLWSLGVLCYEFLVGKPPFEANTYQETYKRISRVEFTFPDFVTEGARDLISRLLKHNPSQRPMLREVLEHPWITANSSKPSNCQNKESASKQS

SMILES: CNC(=O)c1ccccc1Sc1ccc2c(/C=C/c3ccccn3)n[nH]c2c1
- inhibition ([1]; compound 0.001 µM): -7.5%
- inhibition ([1]; compound 0.02 µM): -8.1%
- inhibition ([2]; compound 0.001 µM): -5.7%
- inhibition ([2]; compound 0.02 µM): -6.7%
- inhibition ([3]; compound 0.001 µM): 6.6%
- inhibition ([3]; compound 0.02 µM): 10.6%
- inhibition ([4]; compound 0.001 µM): 13.3%
- inhibition ([4]; compound 0.02 µM): 54.5%
- inhibition ([5]; compound 0.001 µM): -0.6%
- inhibition ([5]; compound 0.02 µM): 10.8%
- inhibition ([6]; compound 0.001 µM): 5.8%
- inhibition ([6]; compound 0.02 µM): 10.5%
- inhibition ([7]; compound 0.001 µM): 4.4%
- inhibition ([7]; compound 0.02 µM): 2.5%
- inhibition ([8]; compound 0.001 µM): -7.3%
- inhibition ([8]; compound 0.02 µM): -10.6%
- inhibition ([9]; compound 0.001 µM): 2.6%
- inhibition ([9]; compound 0.02 µM): 12.9%
- inhibition ([10]; compound 0.001 µM): 4% and 4.9%
- inhibition ([11]; compound 0.001 µM): 8.7%
- inhibition ([11]; compound 0.02 µM): -6.4%
- inhibition ([12]; compound 0.001 µM): 3.5%
- inhibition ([12]; compound 0.02 µM): 11.8%
- inhibition ([13]; compound 0.02 µM): -2.3%
- inhibition ([14]; compound 0.001 µM): -5.6%
- inhibition ([14]; compound 0.02 µM): -3.7%
- inhibition ([15]; compound 0.001 µM): -1.3%
- inhibition ([15]; compound 0.02 µM): 7.8%
- inhibition ([16]; compound 0.001 µM): 4.1%
- inhibition ([16]; compound 0.02 µM): 2.1%
- inhibition ([17]; compound 0.001 µM): -7.4%
- inhibition ([17]; compound 0.02 µM): -3.3%
- inhibition ([18]; compound 0.001 µM): -9.1%
- inhibition ([18]; compound 0.02 µM): -6.5%
- inhibition ([19]; compound 0.001 µM): 1.6%
- inhibition ([19]; compound 0.02 µM): -4.7%
- inhibition ([20]; compound 0.001 µM): 13.2%
- inhibition ([20]; compound 0.02 µM): 22.8%
- inhibition ([21]; compound 0.001 µM): 2.8%
- inhibition ([21]; compound 0.02 µM): -1.1%
- inhibition [22]: -2.4%
- inhibition ([23]; compound 0.001 µM): -3.8%
- inhibition ([23]; compound 0.02 µM): -2.3%
- inhibition ([24]; compound 0.001 µM): -3.3%
- inhibition ([24]; compound 0.02 µM): -3.7%
- inhibition ([25]; compound 0.001 µM): -2%
- inhibition ([25]; compound 0.02 µM): 0.9%
- inhibition ([26]; compound 0.001 µM): -3.2%
- inhibition ([26]; compound 0.02 µM): -0.8%
- inhibition ([27]; compound 0.001 µM): -5%
- inhibition ([27]; compound 0.02 µM): -4.7%
- inhibition ([28]; compound 0.001 µM): 3.7%
- inhibition ([28]; compound 0.02 µM): 3.2%
- inhibition ([29]; compound 0.001 µM): -1.2%
- inhibition ([29]; compound 0.02 µM): -1.4%
- inhibition ([30]; compound 0.001 µM): -4%
- inhibition ([30]; compound 0.02 µM): -3.9%
- inhibition ([31]; compound 0.001 µM): -5.4%
- inhibition ([31]; compound 0.02 µM): -2.8%

SMILES: Cc1ccc(Nc2nccc(N(C)c3ccc4c(C)n(C)nc4c3)n2)cc1S(N)(=O)=O
- inhibition ([1]; compound 0.02 µM): -4.7%
- inhibition ([1]; compound 0.2 µM): 3.5%
- inhibition ([2]; compound 0.02 µM): -4.3%
- inhibition ([2]; compound 0.2 µM): -3.9%
- inhibition ([3]; compound 0.02 µM): 11.1%
- inhibition ([3]; compound 0.2 µM): 20.6%
- inhibition ([4]; compound 0.02 µM): 11.5%
- inhibition ([4]; compound 0.2 µM): 40.7%
- inhibition ([5]; compound 0.02 µM): 17.8%
- inhibition ([5]; compound 0.2 µM): 69.7%
- inhibition ([6]; compound 0.02 µM): 5.5%
- inhibition ([6]; compound 0.2 µM): 14.7%
- inhibition ([7]; compound 0.02 µM): 2.7%
- inhibition ([7]; compound 0.2 µM): 6.8%
- inhibition ([8]; compound 0.02 µM): -1.5%
- inhibition ([8]; compound 0.2 µM): -7.3%
- inhibition ([9]; compound 0.02 µM): 5.4%
- inhibition ([9]; compound 0.2 µM): 9.1%
- inhibition ([32]; compound 0.02 µM): 36.7%
- inhibition ([32]; compound 0.2 µM): 81.4%
- inhibition ([10]; compound 0.02 µM): 3% and 5.4%
- inhibition ([10]; compound 0.2 µM): 0.8% and 5.1%
- inhibition ([11]; compound 0.02 µM): 0.6%
- inhibition ([11]; compound 0.2 µM): 4.1%
- inhibition ([12]; compound 0.02 µM): 9.3%
- inhibition ([12]; compound 0.2 µM): 12%
- inhibition ([33]; compound 0.02 µM): -4.2%
- inhibition ([33]; compound 0.2 µM): -5.5%
- inhibition ([13]; compound 0.02 µM): -2.1%
- inhibition ([13]; compound 0.2 µM): -0.3%
- inhibition ([14]; compound 0.02 µM): -3.7%
- inhibition ([14]; compound 0.2 µM): 1.4%
- inhibition ([15]; compound 0.02 µM): 5.7%
- inhibition ([15]; compound 0.2 µM): 2.6%
- inhibition ([16]; compound 0.02 µM): 1.6%
- inhibition ([16]; compound 0.2 µM): 5.1%
- inhibition ([17]; compound 0.02 µM): -2.2%
- inhibition ([17]; compound 0.2 µM): 0.8%
- inhibition ([18]; compound 0.02 µM): -1%
- inhibition ([18]; compound 0.2 µM): -1.6%
- inhibition ([19]; compound 0.02 µM): -3.7%
- inhibition ([19]; compound 0.2 µM): -1.3%
- inhibition ([21]; compound 0.02 µM): 0.2%
- inhibition ([21]; compound 0.2 µM): 3.4%
- inhibition ([23]; compound 0.02 µM): -1.9%
- inhibition ([23]; compound 0.2 µM): -4.2%
- inhibition ([24]; compound 0.02 µM): -3.6%
- inhibition ([24]; compound 0.2 µM): -3.8%
- inhibition ([25]; compound 0.02 µM): 1.8%
- inhibition ([25]; compound 0.2 µM): 0.3%
- inhibition ([26]; compound 0.02 µM): 0.1%
- inhibition ([26]; compound 0.2 µM): 1.7%
- inhibition ([27]; compound 0.02 µM): -1.1%
- inhibition ([27]; compound 0.2 µM): 10.8%
- inhibition ([28]; compound 0.02 µM): 5.3%
- inhibition ([28]; compound 0.2 µM): 5.1%
- inhibition ([29]; compound 0.02 µM): 0%
- inhibition ([29]; compound 0.2 µM): -1.5%
- inhibition ([30]; compound 0.02 µM): 3.3%
- inhibition ([30]; compound 0.2 µM): 27.4%
- inhibition ([31]; compound 0.02 µM): 0.5%
- inhibition ([31]; compound 0.2 µM): 5.4%
